A short description of data set [1]: in vivo. Also on record: species or system male rats of Donryu strain. The note with it: rat, po, Concentration of 5-fluorouracil in blood. From the text: Ascites cells (5×10^6) of AH-130 are subcutaneously transplanted in the armpit portion of male rats of Donryu strain weighing about 200 g. Seven days thereafter, the rats with cancer cells weighing at least 2 g are used, five rats in each group.
Two, four and eight hours after the administration, the blood serum and cancer tissue homogenate are collected, each of which is acidified with hydrochloric acid and extracted with chloroform. The resulting aqueous layer is examined for antibiotic activity according to the thin-cup method (Media Circle, Vol. 92, p. 259, 1967) with use of Staphylococcus aureus 209P strain.

Data set [2] deals with AH-130. Briefly: Anti-cancer effect (T/C) on subcutaneously transplanted AH-130, oral administration (Table 2). It counts as in vivo, male Donryu rats. The settings on record: for Anti-cancer effect (T/C): oral. An excerpt:
(2) Determination of effects
(§1) Ascites cells (5×10^6) of AH-130, are subcutaneously transplanted in the armpit of male Donryu rats weighing about 200 g (ten rats in each group). […] Twenty-four hours after the transplantation and during the following seven consecutive days the suspension is orally given to the animal once every day at the dose listed in Table 2. On the 10th day after the transplantation, the tumor is removed from the body and weighed to calculate the average weight (T) of the tumors in the group to which the composition has been given and the corresponding weight (C) in the control group to determine the ratio T/C.

The subject of data set [3] is mice. Briefly: in vivo. The format is in vivo. The note with it: oral, 30240 min. The procedure:
(§2) (5) The anti-cancer compositions of this invention are tested in mice by the following methods to determine acute toxicity, therapeutic effect and theapeutic index.
(§3) Male mice of ICR strain weighing 22±1 g are used, 5 mice in each group. […] Over the following period of three weeks the mice are checked every day for poisoning, body weight and mortality. The LD50 is determined according to the up-and-down method 3 weeks after the administration.

Data set [4] in a line: in vivo. The format is in vivo. The note with it: mouse, in vivo, po, mice, uracil (b)/(a) mol ratio 10, as amount of 5-fluorouracil (a). The procedure:
as §2, §3

Data set [5] deals with AH-130. Description: Effects of Preparations 1 to 8 on AH-130 (Table 4). It counts as in vivo, male Donryu rats. The note with it: I.v.; Compd. 1 10 mg/kg, formulated as Preparation 6 but no uracil.
Excerpt: as §1
(4) Compositions formulated according to Preparations 1 to 8 given above are tested by the foregoing method for effects on AH-130.

The test system of data set [6] is sarcoma 180. Briefly: Therapeutic effect on sarcoma 180 transplanted in mice (Table 5). The note with it: oral, 14400 min. The format is in vivo, male mice of ICR strain. The procedure: as §2
Tissues of sarcoma 180, 2×10^6, are subcutaneously transplanted in the back of male mice of ICR strain (6 mice in each group). […] Twenty-four hours after the transplantation and during the following seven consecutive days the suspension is orally given to the animal once every day.

The conditions of data set [7]: background; cited from earlier work.
The mark [8] stands for this setting: uracil (b)/(a) mol ratio 0, as amount of 5-fluorouracil (a).
Where [9] appears, read: uracil (b)/(a) mol ratio 2.5, as amount of 5-fluorouracil (a).

Compound `O=c1[nH]cc(F)c(=O)[nH]1` [Compound 1, 5-Fluorouracil] had a concentration at 4 h in data set [1] of 20 ng/mL. Further, the response vs control in vivo at 80 µmol/kg in data set [2] (Rattus norvegicus, po, 240 h, read-out: Anti-cancer effect (T/C)) turned out to be 69%. For the same compound, the “Anti-cancer effect (T/C)” value came out at 0.59 in data set [2] (5-fluorouracil (a) 0.08 m.mol/kg + uracil 0.08 m.mol/kg) and 0.32 in data set [2] (5-fluorouracil (a) 0.08 m.mol/kg + uracil 0.16 m.mol/kg). The LD50 in data set [3] (setting [8]) and in data set [3] (setting [9]) was 115 mg/kg throughout. The LD50 at 504 h in data set [4] stood at 97 mg/kg. Also, in data set [5], the “Anti-cancer effect (control) (T/C)” value amounted to 0.66. Further, the ED50 in data set [6] (setting [8]) was found to be 18.5 mg/kg; in data set [6] (setting [9]) it was 8.5 mg/kg; in data set [6] (uracil (b)/(a) mol ratio 10, as amount of 5-fluorouracil (a)), 6.0 mg/kg. In data set [7], the “toxicity and side effects” value was “high toxicity and marked side effects”.

As a reminder, the LD50 is the dose at which mortality reaches 50%. What is called ED50 is the midpoint of the dose-response relation.

These data come from patent US4481203A, “Composition containing 1-(n-hexylcarbamoyl)-5-fluorouracil and uracil” (priority 1977, dated 1984).
